In patent publication US11492347B2 (ENYO PHARMA, priority 2018, dated 2022):

Tests used:
[1] = tested on: NFκB; assay: NFκB reporter assay, TNFα stimulation of A549 NFκB-NanoLuciferase reporter cells; format: cell-based; conditions: Homo sapiens, 4 ng/ml TNFα, NanoGlo luciferase assay 6 hours later
Text: Compounds of the present invention have been tested for their capacity to inhibit NFκB.
The NFκB reporter construct was made by cloning 5 NFκB responsive elements upstream of a NanoLuciferase reporter gene flanked by AAVS1 genomic sequences.
NFκB Responsive element fused with NanoLuciferase and SV40 late Poly(A) signal was amplified from pNL3.2-NFκB-Nluc (Promega) using NFKB-NLUC-F and NFKB-NLUC-R primers and inserted by Infusion (TaKaRa) in AAVS1 SA-2A-puro-pA donor plasmid (Hockemeyer et al, Nat Biotechnol. 2009, 27, 851-7) digested by Sal1. pCRISPR AAVS1-T2 expressing a guide RNA (gRNA) to target human AAVS1 (T2 target sequence) was constructed by inserting AAVS1-T2A hybridized primers in pLentiCRISPR v2-blast (Sanjana et al, Nat Methods. 2014, 11, 783-4) digested by Bsmbl.
A549 cells were transfected by the plasmids and puromycine selected for 5 days (1 μg mL-1). Then clones were obtained by limiting dilution and selected to maximize TNF dependent NFκB-NanoLuciferase induction.
The reporter cells were seeded on a 96-well plate for overnight with DMEM including 10% FBS. Test compounds were added at varying concentrations. The cells then were treated with 4 ng/ml TNFα (Peprotech, ref E251) in DMEM+10% FBS. NanoGlo luciferase assay (Promega) was carried out 6 hours later. Luminescence was measured using a Spark 20M spectrofluorimeter (Tecan). Values were normalized to the luminescence measured in untreated cells.

[2] = target: T1, CISD2 Gene Product (NAF-1) (Homo sapiens, UniProt Q8N5K1); assay: Stability of Fe-S cluster binding of purified NEET protein (absorbance 458 nm); format: biochemical; conditions: for Time (in minutes) to achieve 50% loss of bound cluster (Absorbance 458 nm) / Residual cluster bound at end of experiment (Percentage Absorbance 458 nm at time zero): NAF-1 20 μM, compound 60 μM; for Time (in minutes) to achieve 50% loss of bound cluster (Absorbance 458 nm): pH 6, 37° C., run time 500 minutes, vehicle control 310 or 210; for Residual cluster bound at end of experiment (Percentage Absorbance 458 nm at time zero): pH 6, at 500 minutes, vehicle control 3%; for Stabiliser or destabiliser of Fe-S cluster binding by CISD2 Gene Product (NAF-1): time to 50% cluster loss changed by more than 25% compared to the Control sample, at the concentrations tested
T1 sequence (Q8N5K1 57-135 limits assumed): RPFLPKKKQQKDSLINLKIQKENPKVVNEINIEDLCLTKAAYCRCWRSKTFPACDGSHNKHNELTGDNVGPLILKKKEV
Protocol: (§1) The modulator effect on the NEET proteins encoded by human CISD1, CISD2, and CISD3 genes by the compounds of the invention has been tested and is reported below. Particularly, the biochemical function of the NEET proteins is measured by the stability of Fe—S cluster binding of the purified NEET proteins.
(§2) The Fe—S cluster binding capacity of NEET proteins is known to be coordinated by four amino-acids in a stretch of 16 (three Cysteine and one Histidine). As the lability of the Fe—S cluster of NEET proteins is sensitive to the environment, cluster stability measurements are one of the measures of interactions of NEET proteins with small molecules and compounds. NEET protein/2Fe-2S cluster stability can be assessed by monitoring the decay in absorbance of its characteristic 458-nm peak (characteristic of the oxidized 2Fe-2S cluster) over time. Each NEET protein (mitoNEET, NAF-1 and Miner 2) was tested for its Fe—S binding in the absence or presence of a compound according to the invention (see table 4 below). The rate of cluster release (time in minutes to achieve 50% loss of bound Fe—S cluster) was compared for each NEET protein in the presence of one of the compounds of the invention (in a 1:3 protein:compound molar ratio) relative to each protein alone.
(§3) At pH 6, all the three NEET proteins (mitoNEET, NAF-1 and Miner 2) have a characteristic rate of loss of the bound Fe—S cluster that can be measured by the decrease of absorbance at wavelength 458 nm over time, using a spectrophotometer. Thus, Bis-Tris buffer (100 mM Bis-Tris pH6, 100 mM Nacl) was used at pH 6 to dilute either DMSO (Blank sample: Bis-Tris Buffer pH 6, 66 μM DMSO), DMSO and one of the three NEET proteins (Control sample: Bis-Tris Buffer pH 6, 66 μM DMSO, 20 μM purified NEET protein) or DMSO, one of the three NEET proteins and a compound of the invention (Test sample: Bis-Tris Buffer pH 6, 66 μM DMSO, 20 μM purified NEET protein, 60 μM compound of the invention).
(§4) A reaction mix containing DMSO diluted in the Bis-Tris Buffer with or without a compound of the invention was prepared. The purified NEET protein was the last component added to the reaction mix which was then aliquoted into 4 replicates in 96 wells plates. The absorbance at wavelength 458 nm was taken at 5 minutes intervals at 37° C. with a spectrofluorimeter. The assay run time for CISD2 gene product (NAF-1) was 500 minutes and 180 minutes for both the CISD1gene product (mitoNEET) and the CISD3 gene product (Miner2).
(§5) In addition to time monitoring, residual bound Fe—S cluster to NEET protein was measured at the final point of the spectrometry assay for each Test sample and compared to the Control sample data (in parenthesis table 4). This residual binding is measured by the differential percentage between the absorbance 458 nm at time zero and the absorbance 458 nm at the end of the experiment (i.e. respectively 500 or 180 minutes as described here above), showing the percentage of NEET protein still able to bind a Fe—S cluster.
(§6) Analysis of the absorbance enables the time for which 50% loss of bound Fe—S cluster is reached (i.e. a 50% absorbance decrease at 458 nm) for each Test sample and each Control sample (in parenthesis table 4) to be determined. The data are then compared to determine whether the compound of the invention stabilizes or destabilizes the NEET protein/Fe—S cluster binding.

[3] = target: T2, CISD1 Gene Product (mitoNEET) (Homo sapiens, UniProt Q9NZ45); assay: as above; format: biochemical; conditions: mitoNEET 20 μM, compound 60 μM; for Time (in minutes) to achieve 50% loss of bound cluster (Absorbance 458 nm): pH 6, 37° C., run time 180 minutes, vehicle control 80; for Residual cluster bound at end of experiment (Percentage Absorbance 458 nm at time zero): pH 6, at 180 minutes, vehicle control 16%
T2 sequence (Q9NZ45 33-108 limits assumed): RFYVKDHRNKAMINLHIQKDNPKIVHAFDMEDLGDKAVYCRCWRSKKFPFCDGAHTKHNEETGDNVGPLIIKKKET
Protocol: as §1, §2, §3, §4, §5, §6

[4] = target: T3, CISD3 Gene Product (Miner2) (Homo sapiens, UniProt P0C7P0); assay: as above; format: biochemical; conditions: for Residual cluster bound at end of experiment (Percentage Absorbance 458 nm at time zero): CISD3 gene product 20 μM, pH 6, at 180 minutes, vehicle control 11%
T3 sequence (P0C7P0 15-127): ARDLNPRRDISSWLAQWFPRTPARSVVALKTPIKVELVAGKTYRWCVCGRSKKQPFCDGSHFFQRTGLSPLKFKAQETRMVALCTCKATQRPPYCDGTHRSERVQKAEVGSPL
Protocol: as §1, §2, §3, §4, §5, §6

[5] = tested on: H1N1 (influenza A/New Caledonia/20/99); assay: microbe, parasite or virus in culture; format: cell-based; conditions: H1N1, A549, 48 h
[6] = tested on: PRXF PC-3M; assay: Cytotoxicity, propidium iodide based monolayer assay; format: cell-based; conditions: Homo sapiens, 96 h; PRXF PC-3M prostate adeno carcinoma, four days of treatment, T/C=50%; read-out: Absolute IC50
Protocol: (§7) The cytotoxicity was tested for compounds of the invention on five different cell-lines, namely LXFL 1121, MAXF 401, MMXF L-636, PRXF PC-3M and UXF 1138 which are respectively lung large cell carcinoma, breast adeno carcinoma, multiple myeloma, prostate adeno carcinoma and uterine sarcoma.
(§8) A working stock solution of the test compounds was prepared in DMSO at a concentration of 33 mM or 8.25 mM, and small aliquots were stored at −20° C. On each day of an experiment, a frozen aliquot of the working stock solution was thawed and stored at room temperature prior to and during treatment.
(§9) All liquid handling steps were performed using the Tecan Freedom EVO 200 platform. First, serial 2-fold dilutions of the 33 mM DMSO working stock solution were done in DMSO. The DMSO dilutions were then diluted 1:22 into cell culture medium in an intermediate dilution plate. Finally, 10 μl taken from the intermediate dilution plate were transferred to 140 μl/well of the final assay plate. Thus, the DMSO serial dilutions were diluted 1:330 with cell culture medium, and the DMSO concentration in the assay was 0.3% v/v.
(§10) Cell lines were routinely passaged once or twice weekly and maintained in culture for up to 20 passages. Most cell lines were grown at 37° C. in a humidified atmosphere with 5% CO2 in RPMI 1640 medium (25 mM HEPES, with L-glutamine, #FG1385, Biochrom, Berlin, Germany) supplemented with 10% (v/v) fetal calf serum (Sigma, Taufkirchen, Germany) and 0.05 mg/mL gentamicin (Life Technologies, Karlsruhe, Germany).
(§11) A modified propidium iodide (PI) based monolayer assay was used to assess the anti-cancer activity of the compounds. Briefly, cells were harvested from exponential phase cultures, counted and plated in 96 well flat-bottom microtiter plates at a cell density of 4,000 to 40,000 cells/well dependent on the cell line's growth rate. The individual seeding density for each cell line ensure exponential growth conditions over the whole or at least the bigger part of the treatment period. After a 24 h recovery period, to allow the cells to resume exponential growth, 10 μl of culture medium (6 control wells/cell line/plate) or of culture medium with test compounds were added. Compounds were applied at ten concentrations in 2-fold increments in duplicates up to 25 μM or 100 μM and treatment continued for four days. After four days of treatment, cells were next washed with 200 μl PBS to remove dead cells and debris, then 200 μl of a solution containing 7 μg/ml propidium iodide (PI) and 0.1% (v/v) Triton X-100 was added. After an incubation period of 1-2 hours at room temperature, fluorescence (FU) was measured using the Enspire Multimode Plate Reader (excitation λ=530 nm, emission k=620 nm) to quantify the amount of attached viable cells.
(§12) Drug effects were expressed in terms of the percentage of the fluorescence signal, obtained by comparison of the mean signal in the treated wells with the mean signal of the untreated controls (expressed by the test-versus-control value, T/C−value [%]):
(§13) [formula] IC values reported reflect the concentration of the test compound that achieves T/C=50%. Calculation was done by 4 parameter non-linear curve fit.

[7] = tested on: UXF 1138; assay: as above; format: cell-based; conditions: 96 h; UXF 1138 uterine sarcoma, four days of treatment, T/C=50%; read-out: Absolute IC50
Protocol: as §7, §8, §9, §10, §11, §12, §13

Row | Structure (SMILES) | EC50 [1] [nM] | Time (in minutes) to achieve 50% loss of bound cluster (Absorbance 458 nm) [2] | Residual cluster bound at end of experiment (Percentage Absorbance 458 nm at time zero) [2] | Stabiliser or destabiliser of Fe-S cluster binding by CISD2 Gene Product (NAF-1) [2] | Time (in minutes) to achieve 50% loss of bound cluster (Absorbance 458 nm) [3] | Residual cluster bound at end of experiment (Percentage Absorbance 458 nm at time zero) [3] | Residual cluster bound at end of experiment (Percentage Absorbance 458 nm at time zero) ([4]; compound 60 μM) | Stabiliser or destabiliser of Fe-S cluster binding by CISD3 Gene Product (Miner2) ([4]; time to 50% cluster loss changed by more than 25% compared to the Control sample, at the concentrations tested) | IC50 [5] [nM] | Time (in minutes) to achieve 50% loss of bound cluster (Absorbance 458 nm) ([4]; Miner2 20 μM, compound 60 μM, pH 6, 37° C., run time 180 minutes, vehicle control 60) | IC50 [6] [nM] | IC50 [7] [nM]
1 | CC1(C)Cc2c(sc(NC(=O)c3ccc(NCC4CCOCC4)cc3)c2C(=O)O)C(C)(C)C1 [Compound #132, 5,5,7,7-Tetramethyl-2-[[4-(tetrahydropyran-4-ylmethylamino)benzoyl]amino]-4,6-dihydrobenzothiophene-3-carboxylic acid] | 40 | 210 (310) minutes | 19% (3%) | destabilisers | 90 (80) minutes | 19% (16%) | 50% (11%) | Stabilisers | 1.7 |  |  | 
2 | CC1(C)Cc2c(sc(NC(=O)c3ccc(NC4CCOCC4)cc3)c2C(=O)O)C(C)(C)C1 [Compound #35, 5,5,7,7-Tetramethyl-2-[[4-(tetrahydropyran-4-ylamino)benzoyl]amino]-4,6-dihydrobenzothiophene-3-carboxylic acid] |  | 220 (310) minutes | 13% (3%) | destabilisers | 85 (80) minutes | 26% (16%) | 20% (11%) |  | 16.8 | 50 (60) minutes | 702 | 743
